Assay [1] concerns LX-2 cells. As to the kind of experiment: qRT-PCR of TGFβ1-induced fibrogenic and TGFβ1 signaling genes in LX-2 cells. The class given is cell-based. As to the method:
LX-2 cells were kindly provided by Dr. Scott Friedman at the Icahn School of Medicine at Mount Sinai (New York, N.Y.). Cells were maintained in low-glucose DMEM containing 2% FBS, 4 mM 1-glutamine, 100 U/mL penicillin and 100 μg/mL streptomycin in a 37° C. humidified cell culture chamber providing 5% CO2. LX-2 cells were incubated with varying concentrations of ASTX for 12 or 24 h, and subsequently activated by 2 ng/mL of TGFβ1 (Peprotech, Rocky Hill, N.J.) for 1 to 24 h. Primary mouse HSCs were plated on untreated petri dishes (BD Falcon, Franklin Lakes, N.J.) and maintained in low-glucose DMEM supplemented with 10% FBS, 4 mM L-glutamine, 100 U/mL penicillin and 100 μg/mL streptomycin in a 37° C. humidified cell culture chamber under 5% CO2. ASTX (25 μM) was added at day 2 or day 4 after plating until day 6 with daily media change. All cell culture supplies were purchased from HyClone (Thermo Scientific, Logan, Utah).
(§1) Total RNA extraction, cDNA synthesis, and qRT-PCR were conducted using a Bio-Rad CFX96 Real-Time system (Bio-Rad, Hercules, Calif.) as previously described (see Park et al. Nutr. Res. 2008, vol. 28, pp. 83-91; Rasmussen et al. J. Nutr. 2008, vol. 138, pp. 476-481). Gene sequences were obtained from the GenBank database and primers were designed using Beacon Designer (Premier Biosoft, Palo Alto, Calif.). Primer sequences are available (see supplemental table of Yang et al. Biochimica et Biophysica Acta 2015, vol. 1850, pp. 178-185).
(Real-time PCR tracks product formation cycle by cycle.)

For assay [2], the system named is HDAC9 and myocyte enhancer factor 2 (MEF2). The experiment in a line: HDAC and MEF2 mRNA and protein expression in mouse primary HSCs. The format is cell-based. As to the method: (§2) ASTX, provided by Fuji Chemical Industry Co., Ltd. (Toyama, Japan), was prepared in DMSO as described herein in Example 1. After plated on an uncoated dish, mouse qHSCs were incubated with 25 μM ASTX during activation. aHSCs, which were prepared by culturing qHSCs on an uncoated dish for 6 d, were incubated with 25 μM ASTX for 2 or 4 more days. Also, cells were incubated with 3 μM tert-butyl hydrogen peroxide (tBHP, Thermo Scientific) for 12 h with or without 25 μM ASTX. Medium containing ASTX was replenished daily and DMSO vehicle control was always run in parallel. Human primary HSC were treated with 25 μM ASTX for 24 h, after which they were activated by 3 ng/mL of TGFβ1 (Peprotech, Rocky Hill, N.J.) for 24 h.
(§3) Total RNA extraction, cDNA synthesis, and qRT-PCR were conducted using a Bio-Rad CFX96 Real-Time system (Bio-Rad, Hercules, Calif.) as previously described (Id.). Primer sequences will be available upon request.
Whole cell lysates and human tissue protein extracts were prepared and Western blot analysis were performed as described (Id.) using antibodies against α-SMA (Sigma, St. Louis, Mo.), HDAC3 (Santa Cruz Biotechnology, Santa Cruz, Calif.), HDAC4 (Santa Cruz Biotechnology), HDAC9 (Abcam, Cambridge, Mass.; Novus Biologicals, Littleton, Colo.), Col1A1 (Sigma). β-tubulin (Santa Cruz) or glyceraldehyde 3-phosphate dehydrogenase (GAPDH) (Santa Cruz) was used as a loading control.

The test system of assay [3] is HSCs from wild-type and Nrf2−/− mice. The experiment in a line: qRT-PCR of HSCs from wild-type and Nrf2−/− mice. The class given is cell-based, mouse. As to the method:
Mouse primary HSCs were isolated from C57BL/6J, nuclear erythroid 2-related factor 2 (NRF2) knockout (Nrf2−/−), and wild-type mice using a pronase/collagenase digestion method as described herein Example 1. The cells were then cultured on untreated petri dishes (BD Falcon, Franklin Lakes, N.J.), and maintained in a low-glucose DMEM medium supplemented with 10% FBS, 4 mM L-glutamine, and P/S (100 U/100 μg per mL). Human primary HSCs (Zen-Bio, Research Triangle Park, N.C.) were maintained in a low-glucose DMEM medium containing 2% FBS, 4 mM L-glutamine, 1× nonessential amino acids, 1× vitamins, and P/S (100 U/100 μg per mL). The cells were seeded on a collagen-coated plate for experiments (Sarstedt, Newton, N.C.). LX-2 cells, kindly provided by Dr. Scott Friedman at the Icahn School of Medicine at Mount Sinai (New York, N.Y.), were maintained in a low-glucose DMEM supplemented with 2% FBS, 4 mM L-glutamine, and P/S (100 U/100 μg per mL). All cells were cultured in a 37° C. humidified cell culture chamber with 5% CO2. Cell culture supplies were purchased from HyClone unless stated otherwise (Thermo Scientific, Logan, Utah).
as §2, §3

The subject of assay [4] is LX-2 cells. As to the kind of experiment: qRT-PCR of LX-2 cells transfected with scramble control or Smad3 siRNA. The class given is cell-based. As to the method: as §1
LX-2 cells were transfected with either Silencer® Negative Control scrambled siRNA (Ambion, Invitrogen, Grand Island, N.Y.) or siGENOME SMARTpool SMAD3 siRNA (siGenome, Thermo Scientific, Logan, Utah) as described previously (see Angulo N. Engl. J. Med. 2002, vol. 346, pp. 1221-1231). Twenty four hours after the transfection, cells were pretreated with 25 μM ASTX for 12 h, after which they were stimulated by 2 ng/mL TGFβ1 for additional 12 h for subsequent qRT-PCR analysis.

Setting [5] is: ASTX added at day 4 for 2 d during HSC activation (FIG. 10D).

Take `CC1=C(/C=C/C(C)=C/C=C/C(C)=C/C=C/C=C(C)/C=C/C=C(C)/C=C/C2=C(C)C(=O)C(O)CC2(C)C)C(C)(C)CC(O)C1=O` (stereo not drawn) [ASTX, astaxanthin]: in the assay with LX-2 cells [1] (25 μM ASTX, 3 and 12 h of TGFβ1 stimulation (FIG. 2A)), the “induction of α-SMA mRNA by TGFβ1” value is on record as “significantly inhibited”. Moreover, in the assay with LX-2 cells [1] (25 μM ASTX, 12 h of TGFβ1 stimulation (FIG. 2A)), the “induction of Col1A1 mRNA by TGFβ1” value is “significantly inhibited”. Moreover, the “induction of the fibrogenic genes by TGFβ1” value in the assay on LX-2 cells [1] (10 and 25 μM ASTX, TGFβ1 24 h (FIG. 2B)) is given as “significantly inhibited”. Further, the “TGFβ-induced increases in mRNA levels of TβRI and TβRII” value with LX-2 cells [1] (LX-2 cells, 25 μM ASTX (FIG. 5C)) is “almost completely abolished”. Besides, in the assay on LX-2 cells [1] (LX-2 cells, 25 μM ASTX, 2 ng/mL TGFβ1 24 h (FIG. 3A)), the “TGFβ1-induced expression of α-SMA and Col1A1 mRNA” value is given as “significantly attenuated”. The “TGFβ1-induced increase in mRNA levels of Smad2, Smad3 and Smad7” value in the assay with LX-2 cells [1] (LX-2 cells, 25 μM ASTX, TGFβ1 12 h (FIG. 5C)) is listed as “abolished or significantly attenuated”. Also, in the assay on LX-2 cells [1] (LX-2 cells, 25 μM ASTX, no TGFβ1 (FIG. 3A)), the “basal expression levels of α-SMA and Col1A1 mRNA” value is on record as “did not alter”. The “TGFβ1-induced NOX4 mRNA levels” value in the assay on LX-2 cells [1] (LX-2 cells, P=0.074) is listed as “decreased TGFβ1-induced NOX4 mRNA levels although it did not reach statistical significance”. In addition, in assay [2] (setting [5]), the HDAC2 protein level result is listed as “minimally altered”; the “decrease of HDAC3 and 4 protein levels” value is ~50%; the “decrease of HDAC9 protein level” value was ~70%. The “mRNA levels of HDAC9” value in assay [2] (aHSCs incubated with ASTX for 2 d (FIG. 10F)) is reported as “significantly repressed”. In addition, the “mRNA levels of MEF2 isoforms” value in assay [2] (aHSCs incubated with ASTX for 2 d (FIG. 10G)) is recorded as “significantly repressed”. In addition, the “induction of MEF2a, 2c and 2d mRNA” value in assay [2] (during HSC activation, ASTX for 2 d from day 4 (FIG. 10E)) is “significantly attenuated”. Besides, in assay [2] (during activation of qHSCs (FIG. 10B)), the “HDAC9 mRNA induction” value is “significantly decreased”. For the same molecule, the “α-SMA and Col1A1 mRNA” value in assay [3] (both wild-type and Nrf2−/− HSCs, activated 6 d with ASTX (FIG. 8C)) was “able to decrease”. The “tBHP-increased α-SMA expression” value in assay [3] (both wild-type and Nrf2−/− HSCs, tBHP at day 6 for 12 h (FIG. 8D)) is recorded as “attenuated”. Also, the NRF2 expression entry in assay [3] (wild-type HSCs (FIG. 8D)) is given as “significantly decreased”. Further, in the assay with LX-2 cells [4] (LX-2 cells transfected with scrambled control, 25 μM ASTX 12 h (FIG. 4)), the “induction of fibrogenic genes by TGFβ1” value is recorded as “attenuated”. Further, the “expression of α-SMA” value in the assay on LX-2 cells [4] (Smad3-deficient (siRNA) LX-2 cells) is recorded as “minimal inhibitory effect”. The “increase in TGFβ1 mRNA by TGFβ1 itself” value with LX-2 cells [4] (regardless of Smad3) is listed as “inhibited”.

(Values after patent publication US20160287534A1, “METHODS FOR REVERSING FIBROSIS” (The University of Connecticut, priority 2015, published 2016).)
